Measurements: US10870647B2, “Imidazopyridine derivative, method for preparing same, and pharmaceutical composition containing same as active ingredient for preventing or treating cancer” (DAEGU-GYEONGBUK MEDICAL INNOVATION FOUNDATION, priority 2016, dated 2020)
pIC50: −log10 of the molar value. Where two headings read alike, the source gives them in different places.

How the values were obtained:
Type in all cases: cell-based
Huh7 = assay: Cancer cell proliferation inhibition, MTS assay, 72 hours; conditions: Homo sapiens, Huh-7
Procedure: (§1) MTS assay was performed to evaluate the cancer cell proliferation inhibition (cancer cell apoptosis) effect of the compounds of examples of the present invention. Particularly, the assay was performed using the cancer cell lines GIST-T1, GIST-T1/816, GIST-430, GIST-430/654, GIST-R1, GIST-R3, M-NFS-60, RetParental (Ba/F3), Retwt (Ba/F3), RetV804M (Ba/F3), RET (LC2/ad-CDC6), FYN (MCP-1), FYN (FN), MDA-MB-231, Huh7, K562, T315I(Ba/F3), SK-MEL-28 and A375. Cell culture was performed using a medium suitable for each cell line.
(§2) Other cell lines were seeded in a 96-well plate containing the corresponding medium appropriate for each cell line at the density of 3,000 cells/well, followed by culture in a 5% CO2 and 37° C. incubator for 24 hours. The compounds of examples of the present invention were added to each well at the concentration of from the highest volume of 50 μM to every step of serial dilution. The solvent control, dimethylsulfoxide (DMSO), was treated at the same concentration of 0.05% (v/v) as the volume used for the treatment of the compounds above. Each cell line was cultured for 72 hours. To investigate the cell viability, the MTS and PMS (phenazine methosulfate) mixture provided in CellTiter 96® AQuous Non-Radioactive Cell Proliferation Assay Kit (Promega) was added to each cell culture medium, followed by additional culture at 37° C. for 2 hours. Then, OD450 was measured. Based on OD of the solvent control cells not treated with any compounds of the present invention, the cell proliferation inhibition rate was calculated according to the treatment concentration of each compound. At this time, the concentration of each compound that was able to inhibit cancer cell proliferation up to 50% was determined as IC50 (uM). IC50 of each compound was determined with three data sets and calculated by using Prism softwater (version 6.01, GraphPad).

FYN (MCP-1) = assay: as above
Procedure: as §1, §2

K562 = assay: Cancer cell proliferation inhibition, CCK-8, 72 hours
Procedure: as §1
(§3) In the meantime, MDA-MB-231 and A375 cells were seeded in a 96well plate at the density of 2×10^3/100 μl/well, which stood for a day for attachment. The culture fluid was eliminated. After removing the culture medium, the medium was replaced with the culture medium containing the compounds of the present invention at 3-times serially diluted 9 concentrations (0.0015-10 μM) and the DMSO control, followed by incubation in a 37° C. CO2 incubator for 72 hours. On the other hand, K-562 and Ba/F3-T315I cells were seeded in a 96-well plate at the density of 1×10^4/90 μl/well. The plate containing K-562 cells was added with the culture medium containing the compounds of the present invention at 3-times serially diluted 9 concentrations (0.015-100 μM) and the DMSO control (10 μl/well). The plate containing Ba/F3-T315I cells was added with the culture medium containing the compounds of the present invention at 5-times serially diluted 9 concentrations (0.000256-100 μM) and the DMSO control (10 μl/well). The final concentration was made 0-10 μM and then the cells were cultured in a 37° C. CO2 incubator for 72 hours.
(§4) A375, K-562 and Ba/F3-T315I cells were added with CCK-8 solution at the concentration of 10 μl/well, followed by orbital shaking for 30 seconds. Then, the cells were cultured in a 37° C. CO2 incubator for 2 hours. OD450 was measured by using a microplate reader. The OD value of the well treated with the culture medium and CCK-8 solution alone was subtracted from the OD value measured above, followed by calculation of IC50 using GraphPad Prism 6 software.

A375 = assay: as above
Procedure: as §1, §3, §4

T315I (Ba/F3) = target: T1, T315I (Ba/F3) (Homo sapiens, UniProt P00519, T315I, cells depend on it); assay: as above; conditions: read-out: T315I (Ba/F3) IC50
T1 construct: fused on or other part: P11274 (Breakpoint cluster region protein)
Procedure: as §1, §3, §4

MDA-MB-231 = assay: Real time cell proliferation, IncuCyte ZOOM, 72 hours
RET (LC2/ad-CDC6) = assay: Cancer cell proliferation inhibition, MTS assay, 72 hours; conditions: 72 h
Procedure: as §1, §2

SK-MEL-28 = assay: as above; conditions: Homo sapiens
Procedure: as §1, §2

M-NFS-60 = assay: Cancer cell proliferation inhibition, CCK-8, 72 hours
Procedure: as §1
M-NFS-60 cell line was cultured in the complete growth medium prepared by adding 10% FBS, 0.05 mM 2-mercaptoethanol and 62 ng of human M-CSF to RPMI. When the confluence reached 80% in T-75 flask, the cells were collected in a 50 ml tube for seeding, followed by centrifugation at 800 rpm for 5 minutes. The cells were suspended in 10 mL of growth medium. The cell number was counted by using a hematocytometer to determine the necessary cell number and the medium volume for seeding. The cells were seeded in a 96-well plate at the density of 20000 cells/well (200 μL/well), followed by stabilization in a 37° C. CO2 incubator, while the compounds of the present invention were prepared. The compounds of the present invention were serially diluted with DMSO at the ratio of 1/3 with setting the maximum concentration at 1968 nM, which were loaded in a new V-bottom 96-well plate, resulting in the preparation of total 11 concentrations including the DMSO control. The cells that had been placed in the incubator were taken out, to which the compounds of the present invention were added (2 μl/well). The plate treated with the compounds was cultured in a 37° C. CO2 incubator for 72 hours. 72 hours later, the plate treated with the compounds was taken out, to which CCK-8 solution was treated (20 μl/well). After well mixing, the plate was further cultured in a 37° C. CO2 incubator for 2 hours. Then, OD450 was measured by using a microplate reader. To obtain accurate results, the wells displaying bubbles were eliminated from the measurement.

| pIC50 (Huh7) | pIC50 (FYN (MCP-1)) | pIC50 (K562; Homo sapiens, K562, 72 h) | pIC50 (A375; Homo sapiens, A-375, 72 h) | GI50 (T315I (Ba/F3)) [µM] | pIC50 (MDA-MB-231; Homo sapiens, MDA-MB-231, 72 h) | pIC50 (RET (LC2/ad-CDC6)) | pIC50 (SK-MEL-28) | pIC50 (M-NFS-60) | pIC50 (K562) | pIC50 (A375) | pIC50 (MDA-MB-231) | Compound |
| --- | --- | --- | --- | --- | --- | --- | --- | --- | --- | --- | --- | --- |
| 7.15 | 5.01 | > 9.00 | 6.04 | 0.831 | 6.00 |  |  |  |  |  |  | Cc1ccc(C(=O)Nc2ccc(CN3CCN(C)[C@H](C)C3)c(C(F)(F)F)c2)cc1C#Cc1cnc2c(Nc3cnn(CCCN(C)C)c3)cccn12 [Example 34, (R)-3-((8-((1-(3-(dimethylamino)propyl)-1H-pyrazol-4-yl)amino)imidazo[1,2-a]pyridin-3-yl)ethynyl)-N-(4-((3,4-dimethylpiperazin-1-yl)methyl)-3-(trifluoromethyl)phenyl)-4-methylbenzamide] |
| 4.82 |  | 6.88 | 5.39 | 0.785 | 5.50 | > 5.00 | 5.43 | 6.62 |  |  |  | Cc1ccc(C(=O)Nc2ccc(CN3CCN(C)CC3)c(C(F)(F)F)c2)cc1C#Cc1cnc2c(Nc3ccc(C(F)(F)F)cc3)cccn12 [Example 19, 4-methyl-N-(4-((4-methylpiperazin-1-yl)methyl)-3-(trifluoromethyl)phenyl)-3-((8-((4-(trifluoromethyl)phenyl)amino)imidazo[1,2-a]pyridin-3-yl)ethynyl)benzamide] |
| 5.66 |  | 7.70 | 5.29 | 0.627 | 5.24 | 6.00 | 5.84 |  |  |  |  | Cc1ccc(NC(=O)Nc2cccc(C(F)(F)F)c2)cc1C#Cc1cnc2c(Nc3cnn(C(C)C)c3)cccn12 [Example 83, 1-(3-((8-((1-isopropyl-1H-pyrazol-4-yl)amino)imidazo[1,2-a]pyridin-3-yl)ethynyl)-4-methylphenyl)-3-(3-(trifluoromethyl)phenyl)urea] |
| 4.95 |  | 7.35 | 5.45 | 0.668 | 5.44 | > 6.00 | 5.58 |  |  |  |  | Cc1ccc(Nc2cccn3c(C#Cc4cc(C(=O)Nc5ccc(CN6CCN(C)CC6)c(C(F)(F)F)c5)ccc4C)cnc23)cc1 [Example 24, 4-methyl-N-(4-((4-methylpiperazin-1-yl)methyl)-3-(trifluoromethyl)phenyl)-3-((8-(p-toylamino)imidazo[1,2-a]pyridin-3-yl)ethynyl)benzamide] |
| 5.73 |  | 7.82 | 5.73 | 0.149 | 5.78 | > 7.00 | 5.83 |  |  |  |  | CCN1CCN(Cc2ccc(NC(=O)c3ccc(C)c(C#Cc4cnc5c(Nc6ccc(C)cn6)cccn45)c3)cc2C(F)(F)F)CC1 [Example 21, N-(4-((4-ethylpiperazin-1-yl)methyl)-3-(trifluoromethyl)phenyl)-4-methyl-3-((8-((5-methylpyridin-2-yl)amino)imidazo[1,2-a]pyridin-3-yl)ethynyl)benzamide] |
| 7.24 |  | > 9.00 | 6.65 | 0.0282 | 6.49 | < 8.00 |  | 7.39 |  |  |  | Cc1ccc(C(=O)Nc2ccc(CN3CC[C@@H](N(C)C)C3)c(C(F)(F)F)c2)cc1C#Cc1cnc2c(Nc3cnn(C)c3)cccn12 [Example 50, (R)—N-(4-((3-(dimethylamino)pyrrolidin-1-yl)methyl)-3-(trifluoromethyl)phenyl)-4-methyl-3-((8-((1-methyl-1H-pyrazol-4-yl)amino)imidazo[1,2-a]pyridin-3-yl)ethynyl)benzamide] |
| 4.76 |  | 7.28 | 5.43 | 0.619 | 5.52 | > 6.00 | 5.68 |  |  |  |  | CCN1CCN(Cc2ccc(NC(=O)c3ccc(C)c(C#Cc4cnc5c(Nc6ccc(C)cc6)cccn45)c3)cc2C(F)(F)F)CC1 [Example 25, N-(4-((4-ethylpiperazin-1-yl)methyl)-3-(trifluoromethyl)phenyl)-4-methyl-3-((8-(p-toylamino)imidazo[1,2-a]pyridin-3-yl)ethynyl)benzamide] |
| 5.25 |  | 7.05 | 5.30 | 3.07 | < 5.00 | 6.00 | 5.35 | 5.79 |  |  |  | Cc1ccc(NC(=O)Nc2cc(C(C)(C)C)on2)cc1C#Cc1cnc2c(Nc3cnn(C(C)C)c3)cccn12 [Example 84, 1-(5-(tert-butyl)isoxazol-3-yl)-3-(3-((8-((1-isopropyl-1H-pyrazol-4-yl)amino)imidazo[1,2-a]pyridin-3-yl)ethynyl)-4-methylphenyl)urea] |
|  | 5.25 |  |  | 0.0975 |  |  |  |  | > 9.00 | 6.10 | 6.12 | N-(4-((3-(dimethylamino)pyrrolidin-1-yl)methyl)-3-(trifluoromethyl)phenyl)-4-methyl-3-((8-((1-methyl-1H-pyrazol-4-yl)amino)imidazo[1,2-a]pyridin-3-yl)ethynyl)benzamide [Example 55] |
| < 4.30 |  | 7.92 | < 5.00 | > 10 | < 5.00 |  | < 5.00 |  |  |  |  | Cc1ccc(C(=O)Nc2ccccc2F)cc1C#Cc1cnc2c(Nc3cnn(C)c3)cccn12 [Example 2, N-(2-fluorophenyl)-4-methyl-3-((8-((1-methyl-1H-pyrazol-4-yl)amino)imidazo[1,2-a]pyridin-3-yl)ethynyl)benzamide] |
|  | 6.49 | 8.10 | 5.86 | 0.0326 | 5.89 |  |  |  |  |  |  | COCCn1cc(Nc2cccn3c(C#Cc4cc(C(=O)Nc5cc(C(C)(C)C(F)(F)F)on5)ccc4C)cnc23)cn1 [Example 58, 3-((8-((1-(2-methoxyethyl)-1H-pyrazol-4-yl)amino)imidazo[1,2-a]pyridin-3-yl)ethynyl)-4-methyl-N-(5-(1,1,1-trifluoro-2-methylpropan-2-yl)isoxazol-3-yl)benzamide] |
